Experiment [1] addresses T1, Glycerol-3-phosphate acyltransferase 3 (Homo sapiens) (UniProt Q53EU6).
T1 sequence (whole entry): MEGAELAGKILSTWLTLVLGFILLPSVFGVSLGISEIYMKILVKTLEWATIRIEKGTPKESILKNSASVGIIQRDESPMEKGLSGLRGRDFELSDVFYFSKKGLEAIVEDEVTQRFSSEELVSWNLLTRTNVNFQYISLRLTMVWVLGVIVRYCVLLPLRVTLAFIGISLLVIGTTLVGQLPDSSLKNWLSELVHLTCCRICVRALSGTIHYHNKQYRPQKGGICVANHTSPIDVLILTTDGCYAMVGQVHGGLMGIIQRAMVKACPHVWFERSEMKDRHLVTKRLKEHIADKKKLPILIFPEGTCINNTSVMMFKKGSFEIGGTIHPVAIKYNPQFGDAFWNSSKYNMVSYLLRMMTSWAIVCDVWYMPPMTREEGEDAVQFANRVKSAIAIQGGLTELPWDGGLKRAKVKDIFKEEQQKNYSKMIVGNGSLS
In words: Inhibition of GPAT3 (unknown origin) expressed in Sf9 cell membranes assessed as reduction in glycerol 3-phosphate acyltransferase activity at 1 uM using [3H]-glycerol 3-phosphate and palmitoyl CoA incubated for 60 mins by scintillation counting assay relative to control.

For experiment [2], the target named is T1, Glycerol-3-phosphate acyltransferase 3 (Homo sapiens). In words: Inhibition of GPAT3 (unknown origin) expressed in Sf9 cell membranes assessed as reduction in glycerol 3-phosphate acyltransferase activity at 0.3 uM using [3H]-glycerol 3-phosphate and palmitoyl CoA incubated for 60 mins by scintillation counting assay relative to control.
The target is the same in experiment [3]. In words: Inhibition of GPAT3 (unknown origin) expressed in Sf9 cell membranes assessed as reduction in glycerol 3-phosphate acyltransferase activity at 0.1 uM using [3H]-glycerol 3-phosphate and palmitoyl CoA incubated for 60 mins by scintillation counting assay relative to control.
Experiment [4] has the same target. In words: Inhibition of GPAT3 (unknown origin) expressed in Sf9 cell membranes assessed as reduction in glycerol 3-phosphate acyltransferase activity at 0.03 uM using [3H]-glycerol 3-phosphate and palmitoyl CoA incubated for 60 mins by scintillation counting assay relative to control.
Experiment [5] addresses T2, Glycerol-3-phosphate acyltransferase 4 (Homo sapiens) (UniProt Q86UL3).
T2 sequence (whole entry): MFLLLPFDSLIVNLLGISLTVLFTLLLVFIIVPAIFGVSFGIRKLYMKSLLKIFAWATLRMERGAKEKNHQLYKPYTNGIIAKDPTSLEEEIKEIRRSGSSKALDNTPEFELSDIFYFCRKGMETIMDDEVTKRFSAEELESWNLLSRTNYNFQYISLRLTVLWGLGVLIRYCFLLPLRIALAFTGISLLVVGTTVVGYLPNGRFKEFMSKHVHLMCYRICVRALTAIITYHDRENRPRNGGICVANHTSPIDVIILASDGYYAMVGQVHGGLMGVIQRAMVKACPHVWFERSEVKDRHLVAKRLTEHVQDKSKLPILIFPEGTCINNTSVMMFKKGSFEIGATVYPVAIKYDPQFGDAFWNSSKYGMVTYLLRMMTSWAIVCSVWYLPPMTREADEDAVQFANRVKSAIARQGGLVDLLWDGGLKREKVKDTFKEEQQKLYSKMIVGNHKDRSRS
The experiment is described as follows: Inhibition of GPAT4 (unknown origin) expressed in Sf9 cell membranes assessed as reduction in glycerol 3-phosphate acyltransferase activity at 10 uM using [3H]-glycerol 3-phosphate and palmitoyl CoA incubated for 60 mins by scintillation counting assay relative to control.

For experiment [6], the target named is T2, Glycerol-3-phosphate acyltransferase 4 (Homo sapiens). The experiment is described as follows: Inhibition of GPAT4 (unknown origin) expressed in Sf9 cell membranes assessed as reduction in glycerol 3-phosphate acyltransferase activity at 3 uM using [3H]-glycerol 3-phosphate and palmitoyl CoA incubated for 60 mins by scintillation counting assay relative to control.

Experiment [7] shares this target. In words: Inhibition of GPAT4 (unknown origin) expressed in Sf9 cell membranes assessed as reduction in glycerol 3-phosphate acyltransferase activity at 1 uM using [3H]-glycerol 3-phosphate and palmitoyl CoA incubated for 60 mins by scintillation counting assay relative to control.
Experiment [8] has the same target. In words: Inhibition of GPAT4 (unknown origin) expressed in Sf9 cell membranes assessed as reduction in glycerol 3-phosphate acyltransferase activity at 0.3 uM using [3H]-glycerol 3-phosphate and palmitoyl CoA incubated for 60 mins by scintillation counting assay relative to control.
Experiment [9] has the same target. The experiment is described as follows: Inhibition of GPAT4 (unknown origin) expressed in Sf9 cell membranes assessed as reduction in glycerol 3-phosphate acyltransferase activity at 0.1 uM using [3H]-glycerol 3-phosphate and palmitoyl CoA incubated for 60 mins by scintillation counting assay relative to control.
The target is the same in experiment [10]. The experiment is described as follows: Inhibition of GPAT4 (unknown origin) expressed in Sf9 cell membranes assessed as reduction in glycerol 3-phosphate acyltransferase activity at 0.03 uM using [3H]-glycerol 3-phosphate and palmitoyl CoA incubated for 60 mins by scintillation counting assay relative to control.
Experiment [11] has as its target T3, Mesoderm-specific transcript homolog protein (Homo sapiens) (UniProt Q5EB52).
T3 sequence (whole entry): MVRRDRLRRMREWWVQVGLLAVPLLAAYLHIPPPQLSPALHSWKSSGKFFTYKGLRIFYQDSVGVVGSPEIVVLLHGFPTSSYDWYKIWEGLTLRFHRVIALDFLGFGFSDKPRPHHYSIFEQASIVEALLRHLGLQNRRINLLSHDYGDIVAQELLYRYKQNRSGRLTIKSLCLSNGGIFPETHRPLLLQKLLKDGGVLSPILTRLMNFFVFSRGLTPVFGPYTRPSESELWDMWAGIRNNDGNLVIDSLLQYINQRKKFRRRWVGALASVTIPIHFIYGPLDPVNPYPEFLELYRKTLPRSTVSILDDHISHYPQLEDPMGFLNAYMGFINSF
The experiment is described as follows: Inhibition of human recombinant MEST T580B (11 to 335 amino acids) expressed in Sf9 cell membranes assessed as reduction in glycerol 3-phosphate acyltransferase activity at 10 uM using [3H]-glycerol 3-phosphate and palmitoyl CoA incubated for 60 mins by scintillation counting assay relative to control.

Experiment [12] deals with T3, Mesoderm-specific transcript homolog protein (Homo sapiens). The experiment is described as follows: Inhibition of human recombinant MEST T580B (11 to 335 amino acids) expressed in Sf9 cell membranes assessed as reduction in glycerol 3-phosphate acyltransferase activity at 3 uM using [3H]-glycerol 3-phosphate and palmitoyl CoA incubated for 60 mins by scintillation counting assay relative to control.

For experiment [13] the target is unchanged. In words: Inhibition of human recombinant MEST T580B (11 to 335 amino acids) expressed in Sf9 cell membranes assessed as reduction in glycerol 3-phosphate acyltransferase activity at 1 uM using [3H]-glycerol 3-phosphate and palmitoyl CoA incubated for 60 mins by scintillation counting assay relative to control.
Experiment [14] shares this target. The experiment is described as follows: Inhibition of human recombinant MEST T580B (11 to 335 amino acids) expressed in Sf9 cell membranes assessed as reduction in glycerol 3-phosphate acyltransferase activity at 0.3 uM using [3H]-glycerol 3-phosphate and palmitoyl CoA incubated for 60 mins by scintillation counting assay relative to control.
Experiment [15] has the same target. In words: Inhibition of human recombinant MEST T580B (11 to 335 amino acids) expressed in Sf9 cell membranes assessed as reduction in glycerol 3-phosphate acyltransferase activity at 0.1 uM using [3H]-glycerol 3-phosphate and palmitoyl CoA incubated for 60 mins by scintillation counting assay relative to control.
The target is the same in experiment [16]. The experiment is described as follows: Inhibition of human recombinant MEST T580B (11 to 335 amino acids) expressed in Sf9 cell membranes assessed as reduction in glycerol 3-phosphate acyltransferase activity at 0.03 uM using [3H]-glycerol 3-phosphate and palmitoyl CoA incubated for 60 mins by scintillation counting assay relative to control.

What is called inhibition is the relative decrease from the control value, in per cent.

On to `O=C(CO)COP(=O)(O)O`, for which the inhibition in experiment [1] is 26%; in experiment [2], 12%; in experiment [3], -4%; in experiment [4] it was -9%; in [5], 54%; in [6], 29%. In addition, the inhibition in experiment [7] was 9%; in experiment [8], 15%; in [9], -2%; in [10] it was 6%; in experiment [11] it was 76%; in [12] it was 45%. The inhibition was 18% in experiment [13], 8% in experiment [14], 10% in experiment [15] and -6% in [16].
